Source: US7067551B2, “Deacetylase inhibitors” (Novartis AG, priority 2000, dated 2006)
pIC50: −log10 of the molar value. Each block holds one compound with its values, some of them ahead of it.

Assays:
[1] = test system: H1299 (human lung carcinoma cell); test: Monolayer cell growth inhibition, MTS assay; type: cell-based; conditions: NCI-H1299, H1299, 72 hours compound treatment, lactate salts
Text: (§1) Cell lines H1299 (human lung carcinoma cell) and HCT116 (colon tumor cell) are obtained from the American Type Culture Collection, Rockville, Md. The cell lines are free of Mycoplasma contamination (Rapid Detection System by Gen-Probe, Inc., San Diego, Calif.) and viral contamination (MAP testing by MA BioServices, Inc., Rockville, Md.). The cell lines are propagated and expanded in RPMI 1640 medium containing 10% heat-inactivated FBS (Life Technologies, Grand Island, N.Y.). Cell expansions for implantation are performed in cell factories (NUNC, purchased from Fisher Scientific, Springfield, N.J.). Cells are harvested at 50–90% confluency, washed once with HBSS (Hank's Balanced Salt Solution) containing 10% FBS, and suspended in 100% HBSS.
(§2) Cell proliferation is measured with a commercial MTS kit (Promega, Madision, Wis.) assay using an adaptation of published procedures, for example, that disclosed in Feasibility of drug screening with panels of human tumor cell lines using a microculture tetrazolium assay, Alley M C, et al., Cancer Res. 1988; 48:589–601. Cells are plated in 96-well tissue culture dishes, with top and bottom rows left empty. H1299 and HCT116 cells are suspended in complete media at a density of 5.3×10^3 and 3.6×10^3 cell/mL, respectively, and 190 μl are added per well. Each cell line is added to one half of the plate. Complete medium (200 μL) is added to the top and bottom rows. Twenty-four hours later, 10 μl of MTS solution is added to one of the plates to determine the activity at the time of compound addition (T0). The plate is incubated at 37° C. for 4 hours and the OD490 is measured on a Molecular Devices Thermomax at 490 nm using the Softmax program. The T0 plate serves as a reference for initial activity at the beginning of the experiment.
(§3) Five serial dilutions (1:4) of each compound are made in a 96-deep well plate with the highest concentrations on the edge of plate. Two cell lines are tested with two compounds per plate.0 Ten microliters of each of the five dilutions are added in triplicate and complete medium alone is added to columns six and seven. The plates are incubated at 37° C. for 72 hours. The MTS solution is added (as for the T0 plate) and read four hours later.
(§4) In order to analyze the data, the average background value (media alone) is subtracted from each experimental well; the triplicate values are averaged for each compound dilution. The following formulas are used to calculate percent growth.
Lactate salts of N-hydroxy-3-[4-[[[2-(1H-indol-3-yl)-ethyl]-amino]methyl]phenyl]-2E-2-propenamide (CMD1), N-hydroxy-3-[4-[[(2-hydroxyethyl)[2-(1H-indol-3-yl)ethyl]-amino]methyl]phenyl]-2E-2-propenamide (CMD2), N-hydroxy-3-[4-[[[2-(5-methoxy-1H-indol-3-yl)-ethyl]-amino]methyl]pheny]-2E-2-propenamide (CMD3), N-hydroxy-3-[4-[[[2-(5-fluoro-1H-indol-3-yl)-ethyl]-amino]methyl]phenyl]-2E-2-propenamide (CMD4), N-hydroxy-3-[4-[[[2-(benzofur-3-yl)-ethyl]-amino]methyl]phenyl]-2E-2-propenamide (CMD5) having a purity of higher than 95% are dissolved in pure dimethylsulfoxide (DMSO) to create a stock solution. The stock solution is diluted with 5% dextrose injection, USP, just prior to dosing.

[2] = test system: HCT116 (colon tumor cell); test: Monolayer cell growth inhibition, MTS assay; type: cell-based; conditions: Homo sapiens, HCT-116, HCT116, 72 hours compound treatment, lactate salts
Text: as §1, §2, §3, §4
The stock solution is diluted with 5% dextrose injection, USP, just prior to dosing.

[3] = test system: HDA partially purified from H1299 cells; test: HDA enzyme assay, 3H-acetate release from acetylated histone H4 peptide; type: biochemical, human; conditions: HDA partially purified from H1299, 37° C. 1.5 hr
Method: HDA is partially purified from H1299, human non-small cell lung carcinoma cells (obtained from American Type Culture Collection, 12301 Parklawn Drive, Rockville, Md. 20852, USA). Cells are grown to 70–80% confluence in RPMI media in the presence of 10% FCS, harvested and lysed by sonication. The lysate is centrifuged at 23,420 g for 10–15 min, the supernatant is applied to a Hiload 26/10 High performance Q-sepharose column (Amersham Pharmacia Biotech), and equilibrated with a buffer containing 20 mM Tris pH8.0, 1 mM EDTA, 10 mM NH4Cl2, 1 mM μ-Mercaptoethanol, 5% glycerol, 2 μg/mL aprotinin, 1 μg/mL leupeptin, and 400 mM PMSF. Proteins are eluted in 4 mL aliquots with a linear gradient from 0–500 mM NaCl in the above buffer at a flow rate of 2.5 mL/min. Each preparation of partially purified HDA enzyme is titrated to determine the optimal amount needed to obtain a signal to noise ratio of at least 5 to 1. […] The compounds are serially diluted in DMSO to generate stocks at 20-fold of the assay concentrations. Final concentrations of compounds in the assay are 10 μM, 2 μM, 400 nM, 80 nM, and 16 nM with the final percentage of DMSO in each enzyme reaction equaling 0.1%. Each concentration of compound is assayed in duplicate. The substrate used in the reaction is a peptide of amino acid sequence, [sequence], corresponding to the twenty-four N-terminal amino acids of human histone H4, biotinylated at the N-terminus and penta-acetylated, at each lysine residue with ^3H-acetate. To initiate the reaction, the substrate is diluted in 10 μL of Buffer A (100 mM Tris pH 8.0, 2 mM EDTA), added to the enzyme mixture and collected at the bottom of the deep well plate by centrifugation for 5 minutes at 1500 rpm. Following centrifugation, the mixture is incubated at 37° C. for 1.5 hr. The reaction is stopped by the addition of 20 μL of the Stop Buffer (0.5N HCl, 0.08M Acetic Acid). At this point, the assay proceeds to the robotic extraction phase or is frozen for several days at −80° C.
The extraction of enzymatically cleaved ^3H-acetate groups from the reaction mixture is achieved with the solvent TBME (t-butyl methyl ether) using the Tomtec Quadra 96 workstation. A program is written to add 200 μL of TBME to a 96 “deep well” plate. The workstation is programmed to aspirate 50 μL of air followed by 200 μL of TBME and finally another 25 μL of air, which is dispensed into the each well of the plate. The contents of the deep well were mixed thoroughly by pipetting 160 μL up and down 10 times. Before addition of TBME to the reaction mixture, it is necessary to “pre-wet” the pipette tips with TBME to prevent the solvent from dripping during the transfer to the deep well plate. The organic and aqueous phases in the deep well are separated by centrifugation at 1500 rpm for 5 min. Opti-Phase Supermix liquid scintillation cocktail (200 μL) (Wallac) is added to each well of the 96-well Trilux plate (Wallac). […] The Trilux plate is covered with clear film and read on a 1450 MicroBeta Trilux liquid scintillation and luminescence counter (Wallac) with a color/chemical quench and dpm correction.
In order to determine the IC50 values, the data are analyzed on a spreadsheet. The analysis requires a correction for the background luminescence that is accomplished by subtracting the dpm values of wells without ^3H substrate from the experimental wells. […]

[4] = test system: A549 non-small cell lung human tumor cell line; test: A549 tumor xenograft in athymic mice, antitumor activity; type: in vivo; conditions: for Δ MEAN TUMOR VOLUME: ± SEM
Method: as §1, with “The A549 non-small cell” for “Cell lines H1299 (human”, “human” for “carcinoma cell) and HCT116 (colon”, “cell line is purchased” for “cell) are obtained”, “line is” for “lines are”, “HBSS” for “HBSS (Hank's Balanced Salt Solution)”
(§5) Outbred athymic (nu/nu) female mice (“Hsd:Athymic Nude-nu” from Harlan Sprague Dawley, Indianapolis, Ind.) are anesthetized with Metofane (Mallinckrodt Veterinary, Inc., Mundelein, Ill.), and 100 μL of the cell suspension containing 1×10^7 cells is injected subcutaneously into the right axillary (lateral) region of each animal. Tumors are allowed to grow for about 20 days until a volume of ˜100 mm^3 is achieved. At this point, mice bearing tumors with acceptable morphology and size are sorted into groups of eight for the study. The sorting process produces groups balanced with respect to mean and range of tumor size. Antitumor activity is expressed as % T/C, comparing differences in tumor volumes for treatment group (T) to vehicle control group (C).
(§6) CMD1 is administered intravenously, once daily 5×/week for three weeks, at doses of 10, 25, 50, or 100 mg/kg. The final DMSO concentration is 10%. Each test group has eight mice. Tumors are measured, and individual animal body weights recorded.
(§7) Example B3 repeated except CMD2 is used.

[5] = test system: HCT116 colon tumor cell line; test: HCT116 tumor xenograft in athymic mice, antitumor activity; type: in vivo; conditions: 34th day; for Δ MEAN TUMOR VOLUME: ± SEM
Method: as §1, with “The A549 non-small cell” for “Cell lines H1299 (human”, “human” for “carcinoma cell) and HCT116 (colon”, “cell line is purchased” for “cell) are obtained”, “line is” for “lines are”, “HBSS” for “HBSS (Hank's Balanced Salt Solution)”
as §5, §6
(§8) Example B3 is repeated except the HCT116 colon tumor cell line is used in place of the A549 cell line. The HCT116 cell line is also obtained from American Type Culture Collection, Rockville, Md., and the cell line is free of Mycoplasma contamination and viral contamination.
(§9) Example B4 is repeated except the HCT116 colon tumor cell line is used in place of the A549 cell line. The HCT116 is also obtained from American Type Culture Collection, Rockville, Md., and the cell line is free of Mycoplasma contamination and viral contamination.

[6] = Body weight change of A549 tumor-bearing athymic mice; type: in vivo; conditions: ± SEM
Method: as §5, §6, §7

[7] = Body weight change of HCT116 tumor-bearing athymic mice; type: in vivo; conditions: 34th day, ± SEM
Method: as §5, §6, §8, §9

A549 = test: Annexin V / propidium iodide staining (apoptosis), fluorescence microscopy; type: cell-based, human; conditions: for cells exhibiting cell surface staining with annexin V: A549, 24 hour exposure; for cells staining with annexin V and/or propidium iodide: A549, 48 hour treatment
Method: (§10) Annexin V binding was used as a marker for the early stages of apoptosis. A549,HCT116 and Normal Dermal Human Fibroblasts (NDHF) cells are treated separately with four compounds (CMD1, CMD2, CMD3 and CMD4) for 24 or 48 hours, stained with annexin V and compared to cells treated similarly with vehicle (DMSO). Cells are examined by fluorescence microscopy. […] Viability is assessed by the counterstain, propidium iodide. Cells detected by red fluorescence are not viable.

HCT116 = test: as above; type: cell-based, human; conditions: for cells exhibiting cell surface staining with annexin V: HCT116, 24 hour exposure; for cells staining with annexin V and/or propidium iodide: HCT116, 48 hour treatment
Method: as §10

[8] = test system: Normal Dermal Human Fibroblasts (NDHF); test: as above; type: cell-based; conditions: NDHF cells
Method: as §10

[9] = test system: HCT116 colon tumor cell line; test: HCT116 tumor xenograft in athymic mice, antitumor activity; type: in vivo; conditions: Table B5, HCT116, 50 mg/kg i.v., 34th day, seven mice
[10] = A549, 10 mg/kg i.v. once daily 5×/week for three weeks, 41st day
[11] = A549, 25 mg/kg i.v. once daily 5×/week for three weeks, 41st day
[12] = A549, 50 mg/kg i.v. once daily 5×/week for three weeks, 41st day
[13] = A549, 100 mg/kg i.v. once daily 5×/week for three weeks, 41st day
[14] = Table B5, HCT116, 100 mg/kg i.v.
[15] = Table B4, A549, 25 mg/kg, Example B3 repeated
[16] = Table B4, A549, 50 mg/kg, Example B3 repeated

pIC50 [1]: 6.40 | pIC50 [2]: 7.52 | pIC50 [3]: 7.49
Compound: O=C(/C=C/c1ccc(CNCCc2c[nH]c3ccccc23)cc1)NO [CMD1, N-hydroxy-3-[4-[[[2-(1H-indol-3-yl)-ethyl]-amino]methyl]phenyl]-2E-2-propenamide]
% T/C [4, 10]: 32% | Δ MEAN TUMOR VOLUME [4, 10]: 121 ± 27 mm^3 | % T/C [4, 11]: 20% | Δ MEAN TUMOR VOLUME [4, 11]: 77 ± 32 mm^3 | % T/C [4, 12]: 15% | Δ MEAN TUMOR VOLUME [4, 12]: 57 ± 10 mm^3 | % T/C [4, 13]: 7% | Δ MEAN TUMOR VOLUME [4, 13]: 28 ± 25 mm^3 | % T/C [5, 14]: 18% | Δ MEAN TUMOR VOLUME [5, 14]: 140 ± 38 mm^3 | Δ % BODY WEIGHT [6, 10]: +1.3 ± 0.3% | Δ % BODY WEIGHT [6, 11]: −0.9 ± 0.3% | Δ % BODY WEIGHT [6, 12]: −0.4 ± 0.3% | Δ % BODY WEIGHT [6, 13]: +0.4 ± 0.3% | Δ % BODY WEIGHT ([7]; Table B5, HCT116, 50 mg/kg i.v., seven mice): −7.4 ± 0.8% | Δ % BODY WEIGHT [7, 14]: −3.2 ± 0.4% | cells exhibiting cell surface staining with annexin V (A549): A small percentage | cells staining with annexin V and/or propidium iodide (A549): the majority | cells exhibiting cell surface staining with annexin V (HCT116): the majority | cells staining with annexin V and/or propidium iodide (HCT116): the majority | annexin V staining ([8]; 24 hour exposure): do not show noticeable annexin V staining | % T/C [9]: 25% | Δ MEAN TUMOR VOLUME ([9]; ± SEM): 186 ± 40 mm^3

Compound: Nc1ccccc1NC(=O)c1ccc(CNC(=O)OCc2cccnc2)cc1 [CMDC, reference compound]
pIC50 [1]: 5.17

Compound: COc1ccc2[nH]cc(CCNCc3ccc(/C=C/C(=O)NO)cc3)c2c1 [CMD3, N-hydroxy-3-[4-[[[2-(5-methoxy-1H-indol-3-yl)-ethyl]-amino]methyl]pheny]-2E-2-propenamide]
pIC50 [1]: 6.24 | pIC50 [2]: 7.52 | pIC50 [3]: 7.85 | cells exhibiting cell surface staining with annexin V (A549): A small percentage | cells staining with annexin V and/or propidium iodide (A549): the majority | cells exhibiting cell surface staining with annexin V (HCT116): the majority | cells staining with annexin V and/or propidium iodide (HCT116): the majority | annexin V staining ([8]; 24 hour exposure): do not show noticeable annexin V staining | annexin V staining ([8]; 48 hour): limited annexin V staining

pIC50 [1]: 6.82 | pIC50 [2]: 8.00 | pIC50 [3]: 7.20
Compound: O=C(/C=C/c1ccc(CN(CCO)CCc2c[nH]c3ccccc23)cc1)NO [CMD2, N-hydroxy-3-[4-[[(2-hydroxyethyl)[2-(1H-indol-3-yl)ethyl]-amino]methyl]phenyl]-2E-2-propenamide]
% T/C [4, 15]: 27% | Δ MEAN TUMOR VOLUME [4, 15]: 37 ± 16 mm^3 | % T/C [4, 16]: 21% | Δ MEAN TUMOR VOLUME [4, 16]: 29 ± 15 mm^3 | % T/C ([5]; Table B6, HCT116, 10 mg/kg): 56% | Δ MEAN TUMOR VOLUME ([5]; Table B6, HCT116, 10 mg/kg): 422 ± 75 mm^3 | % T/C ([5]; Table B6, HCT116, 25 mg/kg): 40% | Δ MEAN TUMOR VOLUME ([5]; Table B6, HCT116, 25 mg/kg): 305 ± 47 mm^3 | % T/C ([5]; Table B6, HCT116, 50 mg/kg): 13% | Δ MEAN TUMOR VOLUME ([5]; Table B6, HCT116, 50 mg/kg): 97 ± 30 mm^3 | % T/C ([5]; Table B6, HCT116, 100 mg/kg): 17% | Δ MEAN TUMOR VOLUME ([5]; Table B6, HCT116, 100 mg/kg): 132 ± 30 mm^3 | Δ % BODY WEIGHT [6, 15]: −4.2 ± 2.5% | Δ % BODY WEIGHT [6, 16]: −2.9 ± 1.5% | Δ % BODY WEIGHT ([7]; Table B6, HCT116, 10 mg/kg): −10.2 ± 0.5% | Δ % BODY WEIGHT ([7]; Table B6, HCT116, 25 mg/kg): −7.0 ± 0.2% | Δ % BODY WEIGHT ([7]; Table B6, HCT116, 50 mg/kg): −7.3 ± 0.3% | Δ % BODY WEIGHT ([7]; Table B6, HCT116, 100 mg/kg): −9.4 ± 0.4% | cells exhibiting cell surface staining with annexin V (A549): A small percentage | cells staining with annexin V and/or propidium iodide (A549): the majority | cells exhibiting cell surface staining with annexin V (HCT116): the majority | cells staining with annexin V and/or propidium iodide (HCT116): the majority | annexin V staining ([8]; 24 hour exposure): do not show noticeable annexin V staining

Compound: O=C(/C=C/c1ccc(CNCCc2coc3ccccc23)cc1)NO [CMD5, N-hydroxy-3-[4-[[[2-(benzofur-3-yl)-ethyl]-amino]methyl]phenyl]-2E-2-propenamide]
pIC50 [1]: 6.74 | pIC50 [2]: 7.52 | pIC50 [3]: 7.80

pIC50 [1]: 6.55 | pIC50 [2]: 7.52 | pIC50 [3]: 7.85
Compound: O=C(/C=C/c1ccc(CNCCc2c[nH]c3ccc(F)cc23)cc1)NO [CMD4, N-hydroxy-3-[4-[[[2-(5-fluoro-1H-indol-3-yl)-ethyl]-amino]methyl]phenyl]-2E-2-propenamide]
cells exhibiting cell surface staining with annexin V (A549): A small percentage | cells staining with annexin V and/or propidium iodide (A549): the majority | cells exhibiting cell surface staining with annexin V (HCT116): the majority | cells staining with annexin V and/or propidium iodide (HCT116): the majority | annexin V staining ([8]; 24 hour exposure): do not show noticeable annexin V staining
